In ChEMBL document CHEMBL1201862, “PubChem BioAssay data set” (2004):
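Test compounds were applied to cells in 96-well plates for 48 hours at 5 doses. At the GI50, growth is halved.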 Active and inactive are the calls of the source. No stated cut-off is given here; in the data, active = GI50 up to about 1.1 µM and inactive = higher.

Tests used:
Assay in all cases: NCI-60 cell line screen, 48 h
786-0 = tested on: 786-0
A498 = tested on: A498
A549 = tested on: A549
ACHN = tested on: ACHN
BT-549 = tested on: BT-549
CAKI-1 = tested on: CAKI-1
CCRF-CEM = tested on: CCRF-CEM
COLO 205 = tested on: COLO 205
DU-145 = tested on: DU-145
EKVX = tested on: EKVX
HCT-116 = tested on: HCT-116
HCT-15 = tested on: HCT-15
HL-60 = tested on: HL-60
HOP-62 = tested on: HOP-62
HOP-92 = tested on: HOP-92
HT-29 = tested on: HT-29
Hs-578T = tested on: Hs-578T
IGROV-1 = tested on: IGROV-1
K562 = tested on: K562
KM12 = tested on: KM12
LOX IMVI = tested on: LOX IMVI
M14 = tested on: M14
MCF7 = tested on: MCF7
MDA-MB-231 = tested on: MDA-MB-231
MDA-MB-435 = tested on: MDA-MB-435
MDA-N = tested on: MDA-N
MOLT-4 = tested on: MOLT-4
Malme-3M = tested on: Malme-3M
NCI-H226 = tested on: NCI-H226
NCI-H23 = tested on: NCI-H23
NCI-H460 = tested on: NCI-H460
NCI-H522 = tested on: NCI-H522
NCI/ADR-RES = tested on: NCI/ADR-RES
OVCAR-3 = tested on: OVCAR-3
OVCAR-4 = tested on: OVCAR-4
OVCAR-5 = tested on: OVCAR-5
OVCAR-8 = tested on: OVCAR-8
PC-3 = tested on: PC-3
RPMI-8226 = tested on: RPMI-8226
RXF 393 = tested on: RXF 393
SF-268 = tested on: SF-268
SF-295 = tested on: SF-295
SF-539 = tested on: SF-539
SK-MEL-28 = tested on: SK-MEL-28
SK-MEL-2 = tested on: SK-MEL-2
SK-MEL-5 = tested on: SK-MEL-5
SK-OV-3 = tested on: SK-OV-3
SN12C = tested on: SN12C
SNB-19 = tested on: SNB-19
SNB-75 = tested on: SNB-75
SR = tested on: SR
SW-620 = tested on: SW-620
T47D = tested on: T47D
TK-10 = tested on: TK-10
U-251 = tested on: U-251
UACC-257 = tested on: UACC-257
UACC-62 = tested on: UACC-62
UO-31 = tested on: UO-31

C=CC(Br)(CBr)CCC(Br)C(C)C (stereo unspecified)
GI50 (786-0): 1.58 µM (inactive)
GI50 (A498): 18.7 µM (inactive)
GI50 (A549): 14.1 µM (inactive)
GI50 (ACHN): 8.15 µM (inactive)
GI50 (BT-549): 3.14 µM (inactive)
GI50 (CAKI-1): 6.58 µM (inactive)
GI50 (CCRF-CEM): 0.822 µM (active)
GI50 (COLO 205): 5.93 µM (inactive)
GI50 (DU-145): 8.55 µM (inactive)
GI50 (EKVX): 18.3 µM (inactive)
GI50 (HCT-116): 5.57 µM (inactive)
GI50 (HCT-15): 4.66 µM
GI50 (HL-60): 0.769 µM (active)
GI50 (HOP-62): 3.18 µM (inactive)
GI50 (HOP-92): 10.7 µM (inactive)
GI50 (HT-29): 2.79 µM (inactive)
GI50 (Hs-578T): 2.64 µM (inactive)
GI50 (IGROV-1): 3.46 µM (inactive)
GI50 (K562): 2.11 µM (inactive)
GI50 (KM12): 2.18 µM (inactive)
GI50 (LOX IMVI): 1.53 µM (inactive)
GI50 (M14): 4.16 µM (inactive)
GI50 (MCF7): 1.82 µM (inactive)
GI50 (MDA-MB-231): 4.27 µM (inactive)
GI50 (MDA-MB-435): 5.21 µM (inactive)
GI50 (MDA-N): 2.07 µM (inactive)
GI50 (MOLT-4): 1.91 µM (inactive)
GI50 (Malme-3M): 13.5 µM (inactive)
GI50 (NCI-H226): 16.6 µM (inactive)
GI50 (NCI-H23): 6.82 µM (inactive)
GI50 (NCI-H460): 4.71 µM (inactive)
GI50 (NCI-H522): 1.49 µM (inactive)
GI50 (NCI/ADR-RES): 7.85 µM (inactive)
GI50 (OVCAR-3): 4.5 µM (inactive)
GI50 (OVCAR-4): 4.9 µM (inactive)
GI50 (OVCAR-5): 15.6 µM (inactive)
GI50 (OVCAR-8): 2.44 µM (inactive)
GI50 (PC-3): 7 µM (inactive)
GI50 (RPMI-8226): 1.25 µM (inactive)
GI50 (RXF 393): 5.89 µM (inactive)
GI50 (SF-268): 5.48 µM (inactive)
GI50 (SF-295): 4.26 µM (inactive)
GI50 (SF-539): 2.66 µM (inactive)
GI50 (SK-MEL-28): 3.49 µM (inactive)
GI50 (SK-MEL-2): 2.96 µM (inactive)
GI50 (SK-MEL-5): 5.24 µM (inactive)
GI50 (SK-OV-3): 16.6 µM (inactive)
GI50 (SN12C): 10.7 µM (inactive)
GI50 (SNB-19): 9.84 µM (inactive)
GI50 (SNB-75): 1.95 µM (inactive)
GI50 (SR): 1.62 µM (inactive)
GI50 (SW-620): 2.2 µM (inactive)
GI50 (T47D): 0.333 µM (active)
GI50 (TK-10): 3.13 µM (inactive)
GI50 (U-251): 3.66 µM (inactive)
GI50 (UACC-257): 8.18 µM (inactive)
GI50 (UACC-62): 3.12 µM (inactive)
GI50 (UO-31): 13 µM (inactive)

NC1=NC(c2ccc(Cl)cc2)N(c2ccc(S(=O)(=O)Nc3ncccn3)cc2)C(N)=N1 (stereo unspecified)
GI50 (786-0): > 100 µM (inactive)
GI50 (A498): > 100 µM (inactive)
GI50 (A549): > 100 µM (inactive)
GI50 (ACHN): > 100 µM (inactive)
GI50 (BT-549): > 100 µM (inactive)
GI50 (CAKI-1): > 100 µM (inactive)
GI50 (CCRF-CEM): > 100 µM (inactive)
GI50 (COLO 205): > 100 µM (inactive)
GI50 (DU-145): > 100 µM (inactive)
GI50 (EKVX): > 100 µM (inactive)
GI50 (HCT-116): > 100 µM (inactive)
GI50 (HCT-15): > 100 µM
GI50 (HL-60): 0.178 µM (active)
GI50 (HOP-62): > 100 µM (inactive)
GI50 (HOP-92): > 100 µM (inactive)
GI50 (HT-29): > 100 µM (inactive)
GI50 (Hs-578T): > 100 µM (inactive)
GI50 (IGROV-1): > 100 µM (inactive)
GI50 (K562): > 100 µM (inactive)
GI50 (KM12): > 100 µM (inactive)
GI50 (LOX IMVI): > 100 µM (inactive)
GI50 (M14): > 100 µM (inactive)
GI50 (MCF7): > 100 µM (inactive)
GI50 (MDA-MB-231): > 100 µM (inactive)
GI50 (MDA-MB-435): > 100 µM (inactive)
GI50 (MDA-N): > 100 µM (inactive)
GI50 (MOLT-4): 54.8 µM (inactive)
GI50 (Malme-3M): > 100 µM (inactive)
GI50 (NCI-H226): > 100 µM (inactive)
GI50 (NCI-H23): > 100 µM (inactive)
GI50 (NCI-H460): > 100 µM (inactive)
GI50 (NCI-H522): > 100 µM (inactive)
GI50 (NCI/ADR-RES): > 100 µM (inactive)
GI50 (OVCAR-3): > 100 µM (inactive)
GI50 (OVCAR-4): > 100 µM (inactive)
GI50 (OVCAR-5): > 100 µM (inactive)
GI50 (OVCAR-8): > 100 µM (inactive)
GI50 (PC-3): > 100 µM (inactive)
GI50 (RPMI-8226): > 100 µM (inactive)
GI50 (RXF 393): > 100 µM (inactive)
GI50 (SF-268): > 100 µM (inactive)
GI50 (SF-295): > 100 µM (inactive)
GI50 (SF-539): > 100 µM (inactive)
GI50 (SK-MEL-28): > 100 µM (inactive)
GI50 (SK-MEL-2): > 100 µM (inactive)
GI50 (SK-MEL-5): > 100 µM (inactive)
GI50 (SK-OV-3): > 100 µM (inactive)
GI50 (SN12C): > 100 µM (inactive)
GI50 (SNB-19): > 100 µM (inactive)
GI50 (SNB-75): > 100 µM (inactive)
GI50 (SR): > 100 µM (inactive)
GI50 (SW-620): > 100 µM (inactive)
GI50 (T47D): > 100 µM (inactive)
GI50 (TK-10): > 100 µM (inactive)
GI50 (U-251): > 100 µM (inactive)
GI50 (UACC-257): > 100 µM (inactive)
GI50 (UACC-62): > 100 µM (inactive)
GI50 (UO-31): > 100 µM (inactive)
